Source: PMC5741723, “Residues His172 and Lys238 are Essential for the Catalytic Activity of the Maleylacetate Reductase from Sphingobium chlorophenolicum Strain L-1” (Scientific Reports, 2017)

Legend:
[1] = target: T1, maleylacetate reductase (PcpE) (Sphingobium chlorophenolicum, UniProt F6F233); assay: surface plasmon resonance; assay type: binding; details: PcpE immobilised by amine coupling; PBS-T, 5% DMSO, pH 7.4; n = 5
T1 construct: gene Sphch_4020; full length, 352 residues; recombinant His6-tagged, tag kept (SPR); mutants in pET30a(+) NdeI/XhoI, E. coli BL21-AI
T1 sequence (F6F233 entry or part of it): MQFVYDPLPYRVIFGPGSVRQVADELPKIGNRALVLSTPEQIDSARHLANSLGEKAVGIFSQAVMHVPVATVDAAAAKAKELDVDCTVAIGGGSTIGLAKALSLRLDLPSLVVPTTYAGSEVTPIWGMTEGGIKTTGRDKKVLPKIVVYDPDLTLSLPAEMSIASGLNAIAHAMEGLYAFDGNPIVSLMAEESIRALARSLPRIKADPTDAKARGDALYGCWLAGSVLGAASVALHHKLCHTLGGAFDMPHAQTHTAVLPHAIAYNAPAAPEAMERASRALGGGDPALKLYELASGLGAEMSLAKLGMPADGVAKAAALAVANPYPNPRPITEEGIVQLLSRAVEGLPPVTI

[2] = target: T1, maleylacetate reductase (PcpE); assay: inhibition of MA reduction, NADH loss at […] nm; assay type: biochemical; details: 360 µM NADH, 400 µM MA, 20 mM Tris-HCl pH 7.0

Oc1c(Cl)c(Cl)c(Cl)c(Cl)c1Cl [PCP, pentachlorophenol]
Kd [1]: 12.8 ± 0.2 µM | % catalytic activity remaining at 5 μM [2]: ~ 30%
